The values that follow are results of earlier work, collected in paper PMC8571282 (Nature Communications, 2021).

For this data set the following is noted: cited from earlier work.

`N#C[C@@]1(c2ccc3c(N)ncnn23)O[C@H](CO)[C@@H](O)[C@H]1O` [GS-441524]: the oral bioavailability (SARS-CoV2 mouse model report, ref Li et al (J. Med Chem. 2021)) was 5%. Further, the oral availability (mice, ref Wei et al. (Bioorg. Med Chem Lett 2021, 116364)) is listed as 16%.
